Laboratory results published in patent US10053477B2, “Spirocyclic aryl phosphorus oxide and aryl phosphorus sulfide” (QILU PHARMACEUTICAL CO., LTD., priority 2014, dated 2018).

Assays:
[1] = test system: LU-01-0015 xenotransplantation (PDX) from lung cancer patients; experiment: In vivo efficacy, LU-01-0015 xenotransplantation (PDX) from lung cancer patients; design: species or system BALB/c nude mice; settings: 25 mg/kg orally everyday
In short: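 Female BALB/c nude mice carried subcutaneous LU-01-0015 lung cancer PDX fragments; dosing began at mean tumor volume of about 250–300 mm^3. Compounds were given orally at 25 mg/kg daily. Caliper volumes (0.5a×b²) were taken every 3 days; efficacy is the mean tumor volume increase in treated mice relative to untreated mice.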

[2] = test system: LU-01-0319 xenotransplantation (PDX) from lung cancer patients; experiment: In vivo efficacy, LU-01-0319 xenotransplantation (PDX) from lung cancer patients; design: species or system BALB/c nude mice; settings: 10 mg/kg orally everyday
Excerpt: BALB/c nude mice, female, 6 to 8 weeks, about 18 to 22 g bodyweight, was kept in a special environment without pathogens, and a single ventilated cage (5 mice per cage). Beddings and water in all the cages were disinfected before use. All the animal had free access to standard authorized commercially available lab diet. 80 mice were supplied by Shanghai BK Laboratory Animal Co., LTD for study. Each mouse was subcutaneously implanted tumor tissue (20-30 mm^3) at right flank for growth of tumor. When the average tumor volume reached about 250-300 mm^3, the assay started. Test compounds were delivered orally everyday, 10 mg/kg. Tumor size was measured with two-dimensional caliper every 3 days, size was recorded by mm^3, and calculated by the following formula: V=V=0.5a×b2, where a and b are respectively the long diameter and short diameter length of the tumor. The antitumor efficacy was determined by dividing the average increased tumor volume in compound-treated animal by the average increased tumor volume in untreated animal.

EGFR T790M/L858R = biological target: T1, EGFR T790M/L858R (Homo sapiens, UniProt P00533, L858R/T790M); experiment: EGFR T790M/L858R enzymatic inhibition (HTRF); type: biochemical; settings: 20 μM ATP
T1 construct: purchased Life technology (Madison, Wis.)
T1 sequence (P00533 25-1210 T790M/L858R): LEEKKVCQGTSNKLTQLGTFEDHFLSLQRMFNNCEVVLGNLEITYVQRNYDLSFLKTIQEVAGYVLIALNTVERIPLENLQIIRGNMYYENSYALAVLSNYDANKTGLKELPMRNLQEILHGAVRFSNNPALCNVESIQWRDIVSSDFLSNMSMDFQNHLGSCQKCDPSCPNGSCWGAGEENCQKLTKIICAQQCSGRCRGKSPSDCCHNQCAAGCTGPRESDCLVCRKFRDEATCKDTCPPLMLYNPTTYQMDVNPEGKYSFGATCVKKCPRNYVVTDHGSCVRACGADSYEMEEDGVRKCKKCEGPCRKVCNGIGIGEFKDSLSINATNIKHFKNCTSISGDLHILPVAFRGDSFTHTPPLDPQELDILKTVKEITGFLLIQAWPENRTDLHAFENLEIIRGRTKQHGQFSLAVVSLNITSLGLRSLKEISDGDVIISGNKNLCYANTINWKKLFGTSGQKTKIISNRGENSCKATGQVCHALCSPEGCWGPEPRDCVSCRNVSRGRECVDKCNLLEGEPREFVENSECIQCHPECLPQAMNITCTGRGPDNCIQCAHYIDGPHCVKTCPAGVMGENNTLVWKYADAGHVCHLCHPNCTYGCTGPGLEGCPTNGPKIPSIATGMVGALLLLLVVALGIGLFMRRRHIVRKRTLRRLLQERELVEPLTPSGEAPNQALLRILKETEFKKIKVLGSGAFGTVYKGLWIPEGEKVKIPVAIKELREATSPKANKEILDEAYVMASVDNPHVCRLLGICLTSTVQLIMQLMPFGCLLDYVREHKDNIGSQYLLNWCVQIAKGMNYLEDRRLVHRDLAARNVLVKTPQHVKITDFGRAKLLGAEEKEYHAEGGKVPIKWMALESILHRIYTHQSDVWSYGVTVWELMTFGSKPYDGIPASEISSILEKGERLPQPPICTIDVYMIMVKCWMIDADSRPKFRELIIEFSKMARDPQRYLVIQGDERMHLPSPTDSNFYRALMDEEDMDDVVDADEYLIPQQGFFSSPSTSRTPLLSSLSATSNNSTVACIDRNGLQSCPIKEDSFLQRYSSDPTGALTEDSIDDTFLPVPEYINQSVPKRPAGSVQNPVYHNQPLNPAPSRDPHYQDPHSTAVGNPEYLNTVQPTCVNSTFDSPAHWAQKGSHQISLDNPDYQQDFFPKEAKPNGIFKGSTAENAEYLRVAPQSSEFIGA
In short: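 HTRF with 0.08 nM EGFR T790M/L858R, 1 μM biotin-TK1 peptide and 20 μM ATP in 50 mM Hepes pH 7.5, 10 mM MgCl2, 60 min at room temperature. Compound 11-point 3-fold series, final […] to 0.017 nM. Detection used Eu-anti-TK1 antibody (2 nM) plus XL665 (62.5 nM), 60 min.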

[3] = test system: LU-01-0319 Crizotinib resistance model; experiment: In vivo anti-tumor efficacy, Crizotinib resistant LU-01-0319 xenotransplantation (PDX) tumor; design: species or system BALB/c nude mice
Excerpt: LU-01-0319 xenotransplantation tumor models initially obtained from clinical sample through surgical resection were implanted into nude mice, which was defined as a batch of P0 (LU-01-0319-P0). The next batch was defined as P1 (LU-01-0319-P1) which was implanted tumors from P0. FP3 was regained from P2, the next batch was defined as FP4 which was implanted tumors from FP3. […] The continuous increasing tumors were defined as LU-01-0319 antitumor models. BALB/c nude mice, female, 6 to 8 weeks, about 18 to 22 g bodyweight, 75 mice were used for study, supplied by Shanghai BK Laboratory Animal Co., LTD. Tumour biopsies (about 30 mm^3) of LU-01-0319R FP6 were implanted subcutaneously on right side of each mouse for growth of tumor. […] Dose of Crizotinib was appropriately varied depending on the tumor size. When average tumor volume reached about ˜500 mm^3, the assay began. Once a day the compounds to be tested were orally administered. Tumor size were measured twice a week with a caliper at two dimensions, and calculated with the following formula: V=0.5a×b2, where a and b are respectively long diameter and short diameter of the tumor. The antitumor efficacy was determined by dividing the average increased tumor volume in compound-treated animal by the average increased tumor volume in untreated animal.

ALK C1156Y = biological target: T2, ALK C1156Y (Homo sapiens, UniProt Q9UM73, C1156Y); experiment: ALK C1156Y enzymatic inhibition (HTRF); type: biochemical; settings: 30 μM ATP
T2 construct: purchased Carna Biosciences (Japan)
T2 sequence (Q9UM73 19-1620 C1156Y): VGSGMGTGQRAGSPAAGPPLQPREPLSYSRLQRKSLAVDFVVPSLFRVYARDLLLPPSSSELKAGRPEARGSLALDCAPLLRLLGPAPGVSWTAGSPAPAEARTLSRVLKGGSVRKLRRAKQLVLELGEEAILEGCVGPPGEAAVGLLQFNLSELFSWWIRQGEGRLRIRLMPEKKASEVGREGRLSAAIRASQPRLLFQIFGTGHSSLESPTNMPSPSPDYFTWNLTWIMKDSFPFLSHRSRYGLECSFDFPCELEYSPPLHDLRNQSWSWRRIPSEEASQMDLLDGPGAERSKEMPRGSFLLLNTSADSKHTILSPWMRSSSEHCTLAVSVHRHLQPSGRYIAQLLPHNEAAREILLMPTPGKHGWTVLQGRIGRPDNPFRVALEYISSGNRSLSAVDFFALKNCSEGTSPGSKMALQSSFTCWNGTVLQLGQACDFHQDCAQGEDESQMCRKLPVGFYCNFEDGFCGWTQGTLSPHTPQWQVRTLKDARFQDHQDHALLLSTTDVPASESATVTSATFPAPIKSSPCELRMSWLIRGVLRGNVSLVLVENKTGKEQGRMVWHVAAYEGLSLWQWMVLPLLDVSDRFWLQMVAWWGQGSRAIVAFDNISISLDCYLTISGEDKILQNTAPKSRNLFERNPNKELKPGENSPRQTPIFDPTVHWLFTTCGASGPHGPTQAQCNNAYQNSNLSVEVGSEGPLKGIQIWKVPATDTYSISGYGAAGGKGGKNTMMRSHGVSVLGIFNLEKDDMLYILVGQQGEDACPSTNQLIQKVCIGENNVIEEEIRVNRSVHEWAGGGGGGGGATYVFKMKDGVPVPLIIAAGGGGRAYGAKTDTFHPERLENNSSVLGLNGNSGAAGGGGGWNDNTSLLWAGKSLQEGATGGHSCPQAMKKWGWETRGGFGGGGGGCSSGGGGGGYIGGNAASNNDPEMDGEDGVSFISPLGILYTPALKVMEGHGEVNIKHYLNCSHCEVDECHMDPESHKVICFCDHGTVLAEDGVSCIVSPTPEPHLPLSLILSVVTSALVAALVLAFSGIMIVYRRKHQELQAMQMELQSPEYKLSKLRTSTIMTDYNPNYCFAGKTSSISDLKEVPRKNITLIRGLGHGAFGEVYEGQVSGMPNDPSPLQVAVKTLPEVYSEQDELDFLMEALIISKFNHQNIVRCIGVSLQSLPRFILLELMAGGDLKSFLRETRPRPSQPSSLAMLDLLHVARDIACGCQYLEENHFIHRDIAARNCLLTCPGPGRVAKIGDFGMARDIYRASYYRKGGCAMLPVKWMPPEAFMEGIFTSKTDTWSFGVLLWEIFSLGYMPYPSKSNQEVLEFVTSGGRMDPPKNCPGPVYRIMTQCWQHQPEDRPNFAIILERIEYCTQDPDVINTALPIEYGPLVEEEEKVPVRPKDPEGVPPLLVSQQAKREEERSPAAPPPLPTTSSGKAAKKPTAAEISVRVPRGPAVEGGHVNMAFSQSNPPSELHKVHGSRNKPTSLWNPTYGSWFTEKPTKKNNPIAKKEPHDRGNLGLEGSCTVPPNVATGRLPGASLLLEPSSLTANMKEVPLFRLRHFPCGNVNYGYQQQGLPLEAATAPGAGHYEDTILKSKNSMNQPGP
Experimental: (§1) Enzyme: ALK wild-type, ALK C1156Y and ALK L1196M supplied by Carna Biosciences (Japan), EGFR T790M/L858R supplied by Life technology (Madison, Wis.).
(§2) HTRF kit: supplied by Cis-Bio International, with Eu-marked TK1 antibody, XL665- and biotin-labelled TK1 polypeptide substrates.
Reaction buffer: 50 mM Hepes (pH7.5), 10 mM MgCl2, 0.01 mM NaV3VO4. […] Reaction was reacted at room temperature for 60 minutes.
(§3) Incubation was carried out for 60 minutes at room temperature. Detection was by Envision.

ALK wild-type = biological target: T3, ALK wild-type (Homo sapiens, UniProt Q9UM73); experiment: ALK wild-type enzymatic inhibition (HTRF); type: biochemical; settings: 30 μM ATP
T3 construct: purchased Carna Biosciences (Japan)
T3 sequence (Q9UM73 19-1620): as the sequence (Q9UM73 19-1620 C1156Y) above, with Y1138C counted along it
Experimental: as §1, §2
10 μl wild-type ALK enzyme reaction mixture system: 0.5 nM wild-type ALK, 1 μM biotin-TK1 peptide, 30 μM ATP. Reaction buffer: 50 mM Hepes (pH7.5), 10 mM MgCl2, 0.01 mM NaV3VO4.
as §3

ALK L1196M = biological target: T4, ALK L1196M (Homo sapiens, UniProt Q9UM73, L1196M); experiment: ALK L1196M enzymatic inhibition (HTRF); type: biochemical; settings: 30 μM ATP
T4 construct: purchased Carna Biosciences (Japan)
T4 sequence (Q9UM73 19-1620 L1196M): as the sequence (Q9UM73 19-1620 C1156Y) above, with Y1138C, L1178M counted along it
Experimental: as §1, §2
Reaction buffer: 50 mM Hepes (pH7.5), 10 mM MgCl2, 0.01 mM NaV3VO4.
as §3

## COc1cc(N2CCC3(CCN(C)CC3)CC2)ccc1Nc1ncc(Cl)c(Nc2ccccc2P(C)(C)=O)n1 [Compound 9, (2-((5-Chloro-2-((2-methoxy-4-(9-methyl-3,9-diazaspiro[5.5]undecan-3-yl)phenyl)amino)pyrimidin-4-yl)amino)phenyl)dimethyl phosphine oxide]
[1]; 3 days
  Tumor volume: 158 mm^3
[1]; 6 days
  Tumor volume: 108 mm^3
[1]; 9 days
  Tumor volume: 82 mm^3
[1]; 12 days
  Tumor volume: 58 mm^3
[1]; 16 days
  Tumor volume: 48 mm^3
[1]; 19 days
  Tumor volume: 46 mm^3
[1]; 23 days
  Tumor volume: 43 mm^3
[2]; 0 days
  Tumor volume: 371 mm^3
[2]; 2 days
  Tumor volume: 359 mm^3
[2]; 6 days
  Tumor volume: 369 mm^3
[2]; 9 days
  Tumor volume: 301 mm^3
[2]; 13 days
  Tumor volume: 305 mm^3
[2]; 16 days
  Tumor volume: 291 mm^3
[2]; 20 days
  Tumor volume: 203 mm^3
[2]; 23 days
  Tumor volume: 172 mm^3
EGFR T790M/L858R
  IC50: 1 to 100 nM
[3]; 0 day, dosage 3 mg/Kg orally once a day
  Tumor volume: 502 mm^3
[3]; 0 day, dosage 10 mg/Kg orally once a day
  Tumor volume: 502 mm^3
[3]; 3 days, dosage 3 mg/Kg orally once a day
  Tumor volume: 722 mm^3
[3]; 3 days, dosage 10 mg/Kg orally once a day
  Tumor volume: 557 mm^3
[3]; 7 days, dosage 3 mg/Kg orally once a day
  Tumor volume: 859 mm^3
[3]; 7 days, dosage 10 mg/Kg orally once a day
  Tumor volume: 416 mm^3
[3]; 10 days, dosage 3 mg/Kg orally once a day
  Tumor volume: 1101 mm^3
[3]; 10 days, dosage 10 mg/Kg orally once a day
  Tumor volume: 261 mm^3
[3]; 13 days, dosage 3 mg/Kg orally once a day
  Tumor volume: 1218 mm^3
[3]; 13 days, dosage 10 mg/Kg orally once a day
  Tumor volume: 196 mm^3
[3]; 17 days, dosage 3 mg/Kg orally once a day
  Tumor volume: 1441 mm^3
[3]; 17 days, dosage 10 mg/Kg orally once a day
  Tumor volume: 133 mm^3
[3]; 19 days, dosage 3 mg/Kg orally once a day
  Tumor volume: 1521 mm^3
[3]; 19 days, dosage 10 mg/Kg orally once a day
  Tumor volume: 102 mm^3
ALK C1156Y
  IC50: 1 to 100 nM
ALK wild-type
  IC50: 1 to 100 nM
ALK L1196M
  IC50: 1 to 100 nM
